Tested on: CRMM2 cells injected behind the eye (RO) of zebrafish embryos
Assay: Zebrafish orthotopic CM tumour model, CRMM2
Type: in vivo, Zebrafish (Danio rerio)
Conditions: for PI (Fluorescence Intensity) / PI (Tumour Area) / Relative Tumour Burden as Measured by Fluorescence Intensity / Tumour Area: CRMM2, Orthotopic Model; for PI (Fluorescence Intensity) / PI (Tumour Area): 0 vs 114 J.cm^−2
Protocol: The zebrafish ectopic conjunctival melanoma tumour model has been described previously. In this model, around 200 fluorescent CM cells are injected into the Duct of Cuvier at 2 dpf, and then disseminate through the blood circulation and grow in the head and tail. To establish the orthotopic tumour model, around 100 red, (td)Tomato fluorescent CRMM1 or CRMM2 cells were injected RO at 2 dpf into tg(Fli:GFP/Casper), endothelial reporter transgenic zebrafish with green fluorescent vasculature and examined by fluorescent microscopy at day 1 and 4 after engraftment (Figure 6A). Tumour expansion at the injection site was measured as fluorescence intensity and tumour area.
For cancer cell injection, two days post-fertilization (dpf), dechorionated zebrafish embryos were anaesthetized with 0.003% tricaine (Sigma) and plated on a 10 cm Petri dish covered with 1.5% of solidified agarose. CRMM1 and CRMM2 cells were suspended in PBS containing 2% polyvinylpyrrolidone (PVP; Sigma-Aldrich) with a concentration of 50,000 cells/µL and loaded into borosilicate glass capillary needles (1 mm O.D. × 0.78 mm I.D.; Harvard Apparatus). In the ectopic model, 200 (td)Tomato fluorescent CM cells were injected into the Duct of Cuvier or at 2 dpf, which led to dissemination through the blood circulation and outgrowth in the head and tail. In orthotopic tumour model, 100 (td)Tomato fluorescent CRMM1 or CRMM2 cells were injected RO in 2 dpf embryos using a Pneumatic Picopump and a manipulator (WPI). After injection, the embryos were incubated in a 34 °C incubator. Images were acquired at 1-, 2- and 4-days post injection (dpi) with a Leica M165 FC stereo fluorescence microscope. Tumor growth was quantified by calculating the total fluorescence intensity and area with the ZF4 pixel counting program (Leiden). Each experiment was performed at least 3 times with a group size of >30 embryos.
Fluorescent CRMM1 and CRMM2 cells were injected at 2 dpf into the Duct of Cuvier (ectopic model) and behind the eye (orthotopic model) and TLD1433 was delivered by WA, IV and RO administration with or without a light treatment as described in 4.8. For the WA administration, the 4.6 nM TLD1433 solution was added to the tumour cells injected zebrafish at 2.5, 3.5, 4.5, 5.5 dpf and maintained for 12 h. At 3, 4, 5, 6 dpf, the fish water was refreshed, and after 1 h, embryos were exposed to green light for 90 min (21 mW/cm^2, 114 J/cm^2, 520 nm). For the IV and RO administration, 1 nL of 2.3 mM TLD1433 solution was injected via the dorsal vein or the RO site at 3, 4, 5, 6 dpf. After 1 h interval, the embryos were exposed to green light for 90 min (21 mW/cm^2, 114 J/cm^2, 520 nm). After treatment, the embryos images were acquired with a Leica M165 FC stereo fluorescence microscope. Tumor growth was quantified by calculating the total fluorescence intensity and area with the ZF4 pixel counting program (Leiden). Each experiment was performed at least 3 times with a group size of >30 embryos.

[1] = Intravenous (1 nL of 2.3 mM), Light Dose 0 J.cm^−2, vs control dark group (100%)
[2] = Intravenous (1 nL of 2.3 mM), Light Dose 114 J.cm^−2, vs control dark group (100%)
[3] = Water (4.6 nM), Light dose 0 J.cm^−2, vs control dark group (100%)
[4] = Water (4.6 nM), Light dose 114 J.cm^−2, vs control dark group (100%)
[5] = CRMM2, orthotopic model, RO 2.3 mM, green light 114 J.cm^−2

SMILES: Cc1ccnc(-c2cc(C)ccn2)c1.Cc1ccnc(-c2cc(C)ccn2)c1.[Cl-].[Cl-].[Ru+2].c1csc(-c2ccc(-c3ccc(-c4nc5c6cccnc6c6ncccc6c5[nH]4)s3)s2)c1 [TLD1433]
- PI (Fluorescence Intensity) (Intravenous (1 nL of 2.3 mM)): 1.0
- PI (Tumour Area) (Intravenous (1 nL of 2.3 mM)): 1.1
- Relative Tumour Burden as Measured by Fluorescence Intensity [1]: 98%
- Tumour Area [1]: 97%
- Relative Tumour Burden as Measured by Fluorescence Intensity [2]: 95%
- Tumour Area [2]: 93%
- PI (Tumour Area) (Retro orbital (1 nL of 2.3 mM)): 3.4
- Tumour Area (Retro orbital (1 nL of 2.3 mM), Light dose 0 J.cm^−2, vs control dark group (100%)): 99%
- Tumour Area (Retro orbital (1 nL of 2.3 mM), Light dose 114 J.cm^−2, vs control dark group (100%)): 29%
- PI (Fluorescence Intensity) (Retro-orbital (1 nL of 2.3 mM)): 2.2
- Relative Tumour Burden as Measured by Fluorescence Intensity (Retro-orbital (1 nL of 2.3 mM), Light Dose 0 J.cm^−2, vs control dark group (100%)): 100%
- Relative Tumour Burden as Measured by Fluorescence Intensity (Retro-orbital (1 nL of 2.3 mM), Light Dose 114 J.cm^−2, vs control dark group (100%)): 45%
- PI (Fluorescence Intensity) (Water (4.6 nM)): 0.92
- PI (Tumour Area) (Water (4.6 nM)): 1.1
- Relative Tumour Burden as Measured by Fluorescence Intensity [3]: 96%
- Tumour Area [3]: 104%
- Relative Tumour Burden as Measured by Fluorescence Intensity [4]: 104%
- Tumour Area [4]: 95%
- diminished fluorescence intensity [5]: 55%
- diminished tumour area [5]: 71%
- effect on tumour burden (in words) (CRMM2, orthotopic model, WA at the MTD (4.6 nM), light 114 J.cm^−2): did not inhibit tumour burden

From publication PMC7139549, “TLD1433 Photosensitizer Inhibits Conjunctival Melanoma Cells in Zebrafish Ectopic and Orthotopic Tumour Models” (Cancers, 2020)
